# Data from ChEMBL document CHEMBL1152723, “Remarkable enhancement in the DNA-binding ability of C2-fluoro substituted pyrrolo[2,1-c][1,4]benzodiazepines and their anticancer potential” (2009).
# Test system: DNA
# Assay: Binding affinity to calf thymus DNA assessed as change in melting temperature at a compound to DNA molar ratio of 1:5 at pH 7 by thermal denaturation assay
# Format: nucleic-acid assay
# Details: Bos taurus
row,SMILES,ΔTm [°C]
1,C=C1C[C@H]2C=Nc3cc(OCCCOc4cc5c(cc4OC)C(=O)N4CC(=C)C[C@H]4C=N5)c(OC)cc3C(=O)N2C1,25.7
2,COc1cc2c(cc1OCCCOc1cc3c(cc1OC)C(=O)N1CCC[C@H]1C=N3)N=C[C@@H]1CCCN1C2=O,10.2
3,COc1cc2c(cc1OCCCCN1CCN(CCCCOc3cc4c(cc3OC)C(=O)N3CC(F)C[C@H]3C=N4)CC1)N=C[C@@H]1CC(F)CN1C2=O (stereo not given in full),38

# Now from value to compound:
row,ΔTm [°C],SMILES
1,14,COc1cc2c(cc1OCCCCN1CCN(CCCCOc3cc4c(cc3OC)C(=O)N3CC(F)(F)C[C@H]3C=N4)CC1)N=C[C@@H]1CC(F)(F)CN1C2=O
2,37,COc1cc2c(cc1OCCCCCN1CCN(CCCCCOc3cc4c(cc3OC)C(=O)N3CC(F)C[C@H]3C=N4)CC1)N=C[C@@H]1CC(F)CN1C2=O (stereo not given in full)
